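Each compound was tested at five concentrations against cells in 96-well plates for 48 hours. GI50: concentration for 50% inhibition of growth. Definition used: TGI = concentration required for complete inhibition of growth.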
Key:
Experiment in all cases: NCI anticancer screen, dose series, 48 h
KM12 colon = tested on: KM12 colon
PC-3 prostate = tested on: PC-3 prostate
A549 NSCLC = tested on: A549 NSCLC
TK-10 renal = tested on: TK-10 renal
SR leukemia = tested on: SR leukemia
SW-620 colon = tested on: SW-620 colon
COLO 205 colon = tested on: COLO 205 colon
NCI/ADR-RES ovarian = tested on: NCI/ADR-RES ovarian
SNB-75 CNS = tested on: SNB-75 CNS
UO-31 renal = tested on: UO-31 renal

SMILES	TGI (KM12 colon)	TGI (PC-3 prostate)	TGI (A549 NSCLC)	TGI (TK-10 renal)	TGI (SR leukemia)	TGI (SW-620 colon)	TGI (COLO 205 colon)	TGI (NCI/ADR-RES ovarian)	TGI (SNB-75 CNS)	TGI (UO-31 renal)	GI50 (KM12 colon)	GI50 (PC-3 prostate)	GI50 (A549 NSCLC)	GI50 (TK-10 renal)	GI50 (SNB-75 CNS)	GI50 (SR leukemia)	GI50 (SW-620 colon)	GI50 (NCI/ADR-RES ovarian)	GI50 (UO-31 renal)	GI50 (COLO 205 colon)
CC(=O)N1CCn2c1nc1cc(Cl)ccc12	> 100 µM	> 100 µM	> 100 µM	> 100 µM	> 100 µM	> 100 µM	> 100 µM	> 100 µM	–	–	–	–	–	–	–	–	–	–	–	–
CSc1c(C(=O)Nc2ccc(Cl)cc2)c(N)n(N)c(=O)c1C#N	> 100 µM	> 100 µM	> 100 µM	> 100 µM	> 100 µM	> 100 µM	> 100 µM	> 100 µM	> 100 µM	> 100 µM	–	–	–	–	–	–	–	–	–	–
COc1ccc2c(OCc3nnc4ccc(-c5ccccc5)nn34)ccnc2c1	> 100 µM	> 100 µM	> 100 µM	> 100 µM	> 100 µM	> 100 µM	–	> 100 µM	> 100 µM	–	> 100 µM	> 100 µM	> 100 µM	> 100 µM	> 100 µM	5.64 µM	> 100 µM	> 100000 nM	–	–
O=C(CCc1ccccc1)ON1C(=S)C(c2ccccc2)(c2ccccc2)N=C1Sc1ccccc1	> 100 µM	> 100 µM	> 100 µM	> 100 µM	–	–	> 100 µM	> 100 µM	> 100 µM	> 100 µM	–	–	–	–	–	–	–	–	–	–
CCOC(=O)C1=COC(C)(CCc2ccccc2)CC1=O (centres undefined)	> 100 µM	> 100 µM	> 100 µM	> 100 µM	–	> 100 µM	> 100 µM	> 100 µM	> 100 µM	> 100 µM	–	–	–	–	–	–	–	–	–	–
CCN(CC)c1ccc2cc(C(=O)Nc3ccccn3)c(=N)oc2c1	> 100 µM	–	> 100 µM	–	> 100 µM	> 100 µM	> 100 µM	> 100 µM	> 100 µM	–	–	–	–	–	–	–	–	–	–	–
O=C1Nc2ccccc2Nc2ccncc21	> 100 µM	–	> 100 µM	–	–	> 100 µM	> 100 µM	> 100 µM	> 100 µM	> 100 µM	–	–	–	–	–	–	–	–	–	–
CNc1ncc(-c2nnnn2-c2ccccc2)c(CN(C)C)n1	> 100 µM	> 100 µM	> 100 µM	> 100 µM	> 100 µM	> 100 µM	> 100 µM	> 100 µM	> 100 µM	> 100 µM	–	–	–	–	–	–	–	–	–	–
CC(=O)[CH-]C(=O)c1ccccc1.CC(=O)[CH-]C(=O)c1ccccc1.C[C@]12CCC(=O)C=C1CC[C@@H]1C2CC[C@@]2(C)C1CC[C@]2(C)[O-].C[C@]12CCC(=O)C=C1CC[C@@H]1C2CC[C@@]2(C)C1CC[C@]2(C)[O-].Cl.[Ti+4] (some centres undefined)	71.3 µM	–	40.3 µM	> 100 µM	–	30 µM	> 100 µM	–	43.7 µM	85.3 µM	13.5 µM	–	16.1 µM	34.2 µM	15.7 µM	–	3.91 µM	–	24.2 µM	37.6 µM
COc1cccc(/C=N/[N-]C(N)=O)c1[O-].[Cu+2].[OH3+].c1ccc(-c2ccccn2)nc1	> 100 µM	–	> 100 µM	42.9 µM	> 100 µM	> 100 µM	55.4 µM	–	33.9 µM	> 100 µM	–	–	–	–	–	–	–	–	–	–
Cc1nc2ccccc2c(/C=C/c2ccc(Cl)cc2)c1C(=O)/C=C/c1ccc(Cl)cc1	–	–	–	–	> 100 µM	–	–	6.15 µM	–	2.25 µM	–	–	–	–	–	0.609 µM	–	2120 nM	1.06 µM	–
COc1ccc2oc(=O)c(-c3csc(C)n3)cc2c1	> 100 µM	> 100 µM	> 100 µM	64.7 µM	> 100 µM	> 100 µM	> 100 µM	–	55.6 µM	> 100 µM	–	–	–	–	–	–	–	–	–	–
O=C(NC(=S)NC(=O)c1cc(O)c(O)c(O)c1)c1cc(O)c(O)c(O)c1	70.5 µM	39.8 µM	> 100 µM	61.3 µM	> 100 µM	> 100 µM	46.7 µM	70.4 µM	–	44.1 µM	–	–	–	–	–	–	–	–	–	–
CC(C)(C)OC(=O)NCCCCC(NC(=O)c1ccccc1)C(N)=O (centres undefined)	> 100 µM	> 100 µM	> 100 µM	> 100 µM	–	> 100 µM	> 100 µM	> 100 µM	> 100 µM	> 100 µM	–	–	–	–	–	–	–	–	–	–
CCc1ccccc1NNc1cc(=O)[nH]c(=O)[nH]1	36 µM	32.8 µM	57.3 µM	–	> 100 µM	37.3 µM	34.5 µM	> 100 µM	40.5 µM	31.1 µM	–	–	–	–	–	–	–	–	–	–
CCOC(=O)Cc1nc2c(N)ncnc2n1C1OC(COC(C)=O)C(OC(C)=O)C1OC(C)=O (centres undefined)	> 100 µM	> 100 µM	> 100 µM	> 100 µM	> 100 µM	> 100 µM	> 100 µM	> 100 µM	–	> 100 µM	–	–	–	–	–	–	–	–	–	–
Cc1ccccc1NC(=O)Cc1csc2[n+]1C(=O)/C(=C/c1ccc([N+](=O)[O-])cc1)S2	> 100 µM	> 100 µM	> 100 µM	56.3 µM	–	> 100 µM	> 100 µM	> 100 µM	63.1 µM	85.5 µM	–	–	–	–	–	–	–	–	–	–
NC(Cc1ccc(S(=O)(=O)O)cc1)C(=O)NC(Cc1ccc(S(=O)(=O)O)cc1)C(=O)O (centres undefined)	> 100 µM	> 100 µM	> 100 µM	> 100 µM	–	> 100 µM	> 100 µM	> 100 µM	> 100 µM	> 100 µM	–	–	–	–	–	–	–	–	–	–
Cc1nc2c(=S)n(C)ncc2[nH]1	> 100 µM	> 100 µM	> 100 µM	> 100 µM	–	> 100 µM	> 100 µM	> 100 µM	> 100 µM	> 100 µM	–	–	–	–	–	–	–	–	–	–
NNC(=O)c1cc(=O)[nH][nH]1	> 100 µM	> 100 µM	> 100 µM	> 100 µM	–	> 100 µM	> 100 µM	> 100 µM	> 100 µM	> 100 µM	–	–	–	–	–	–	–	–	–	–
C[C@H](C/C=C/C(C)(C)O)[C@H]1CC[C@@]2(C)[C@@H]3CC[C@H]4C(C)(C)[C@@H](O)CC[C@@]45C[C@@]35CC[C@]12C	77.4 µM	65.1 µM	31 µM	27.1 µM	–	65.4 µM	–	19.4 µM	52.5 µM	53.6 µM	–	–	–	–	–	–	–	–	–	–
COc1cc(C2c3cc4c(cc3OC(N3CCNCC3)C2C)OCO4)cc(OC)c1OC (centres undefined)	9.87 µM	> 34.4 µM	> 53.9 µM	> 100 µM	3.88 µM	17.3 µM	2 µM	–	–	15.6 µM	–	–	–	–	–	–	–	–	–	–
CN(C)c1cc[n+](-c2nc(/N=C(\[O-])C(F)(F)F)nc3c2ncn3C2CC(O)C(CO)O2)cc1 (centres undefined)	> 100 µM	> 100 µM	> 100 µM	> 100 µM	–	> 100 µM	> 100 µM	> 100 µM	> 100 µM	> 100 µM	–	–	–	–	–	–	–	–	–	–

— PubChem BioAssay (NCI)
